Measurements reported in ChEMBL document CHEMBL4420076, “Amylin and calcitonin receptor agonist” (2017).
Numbered stars: 1 amine (or outer) side, 2 acyl side, 3 side chain; on linkers, the order of the positions; unused ones are H or OH. Peptide text beside a SMILES is read from it. * marks the point of attachment. C20 diacid = O=C(O)CCCCCCCCCCCCCCCCCCC(=O)*; C18 diacid = O=C(O)CCCCCCCCCCCCCCCCC(=O)*; γGlu = O=C(O)[C@H](CCC(=O)[*:2])N[*:1]

Legend:
[1] = target: T1, Amylin receptor AMY3; CALCR/RAMP3 (Homo sapiens, UniProt O60896+P30988); assay: Displacement of [125I]-labeled rat amylin from human amylin receptor expressed in BHK tkts13 whole cells co-expressing RAMP3 incubated for 60 mins by scintillation proximity assay; format: cell-based
T1 sequence (P30988 whole entry): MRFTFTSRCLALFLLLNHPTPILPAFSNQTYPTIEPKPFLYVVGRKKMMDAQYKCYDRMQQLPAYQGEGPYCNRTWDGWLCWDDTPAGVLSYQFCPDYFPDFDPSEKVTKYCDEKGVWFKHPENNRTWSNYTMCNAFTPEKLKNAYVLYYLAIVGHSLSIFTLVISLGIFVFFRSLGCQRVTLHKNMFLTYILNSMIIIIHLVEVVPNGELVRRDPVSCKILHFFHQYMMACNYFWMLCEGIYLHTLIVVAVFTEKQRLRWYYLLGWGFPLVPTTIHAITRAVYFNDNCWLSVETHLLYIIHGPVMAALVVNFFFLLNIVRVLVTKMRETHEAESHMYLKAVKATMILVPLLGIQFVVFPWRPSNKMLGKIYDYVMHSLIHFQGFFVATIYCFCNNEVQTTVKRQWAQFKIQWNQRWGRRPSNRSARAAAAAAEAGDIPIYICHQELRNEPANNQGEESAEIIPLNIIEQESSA
T1 sequence (O60896 whole entry): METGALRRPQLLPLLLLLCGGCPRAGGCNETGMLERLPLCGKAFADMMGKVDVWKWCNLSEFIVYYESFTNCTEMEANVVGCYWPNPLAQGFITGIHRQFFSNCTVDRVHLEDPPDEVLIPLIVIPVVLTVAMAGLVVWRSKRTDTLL

[2] = target: T1, Amylin receptor AMY3; CALCR/RAMP3; assay: Agonist activity at human amylin receptor expressed in BHK570 cells co-expressing RAMP3 assessed as increase in intracellular cAMP concentration incubated for 3 hrs in absence of albumin by CRE luciferase reporter gene assay; format: functional, cell-based
[3] = Solubility in 100 mM glycylglycine buffer at pH 3.0 incubated for 18 hrs by UPLC analysis; format: physicochemical
[4] = Solubility in 100 mM bistrispropane buffer at pH 6.0 incubated for 18 hrs by UPLC analysis; format: physicochemical
[5] = Solubility in 100 mM bistrispropane buffer at pH 6.5 incubated for 18 hrs by UPLC analysis; format: physicochemical
[6] = Solubility in 100 mM bistrispropane buffer at pH 7.0 incubated for 18 hrs by UPLC analysis; format: physicochemical
[7] = Solubility in 100 mM bistrispropane buffer at pH 7.5 incubated for 18 hrs by UPLC analysis; format: physicochemical
[8] = Solubility in 100 mM bistrispropane buffer at pH 8.0 incubated for 18 hrs by UPLC analysis; format: physicochemical
Calcitonin receptor = target: T2, Calcitonin receptor (Homo sapiens, UniProt P30988); assay: Agonist activity at human calcitonin receptor expressed in BHK570 cells assessed as increase in intracellular cAMP concentration incubated for 3 hrs in absence of albumin by CRE luciferase reporter gene assay; format: functional, cell-based
T2 sequence (P30988 whole entry): T1 sequence (P30988 whole entry)

Row | Structure (SMILES) | IC50 [1] | EC50 [2] | solubility at 18 h [3] | solubility at 18 h [4] | solubility at 18 h [5] | solubility at 18 h [6] | solubility at 18 h [7] | solubility at 18 h [8] | EC50 (Calcitonin receptor)
1 | CC(C)C[C@H](NC(=O)[C@H](C)NC(=O)[C@H](C)NC(=O)[C@@H](NC(=O)[C@H](CO)NC(=O)[C@H](CC(C)C)NC(=O)[C@H](CCC(=O)O)NC(=O)[C@H](CO)NC(=O)[C@H](C)NC(=O)[C@@H](N)CCC(=O)O)[C@@H](C)O)C(=O)NCC(=O)N[C@@H](CCCNC(=N)N)C(=O)N[C@@H](CC(C)C)C(=O)N[C@@H](CO)C(=O)N[C@@H](C)C(=O)N[C@@H](CCC(=O)O)C(=O)N[C@@H](CC(C)C)C(=O)N[C@@H](Cc1cnc[nH]1)C(=O)N[C@@H](CCC(=O)O)C(=O)N[C@@H](CC(C)C)C(=O)N[C@@H](C)C(=O)N[C@H](C(=O)N[C@@H](CC(C)C)C(=O)N1CCC[C@H]1C(=O)N[C@@H](CCCNC(=N)N)C(=O)N[C@H](C(=O)N[C@@H](CCC(=O)O)C(=O)N[C@H](C(=O)NCC(=O)N1CCC[C@H]1C(=O)N[C@@H](CCC(=O)O)C(=O)N[C@@H](CO)C(=O)N1CCC[C@H]1C(=O)O)[C@@H](C)O)[C@@H](C)O)[C@@H](C)O (H-EASELSTAALGRLSAELHELATLPRTETGPESP-OH) | 294 nM |  |  |  |  |  |  |  | 
2 | CC[C@H](C)[C@H](NC(=O)[C@H](CCC(=O)O)NC(=O)[C@H](CO)NC(=O)[C@H](C)NC(=O)[C@H](CCC(=O)O)NC(=O)CCCCCCCCCCCCCCCCC(=O)O)C(=O)N[C@@H](CO)C(=O)N[C@H](C(=O)N[C@@H](C)C(=O)N[C@@H](C)C(=O)N[C@@H](CC(C)C)C(=O)NCC(=O)N[C@@H](CCCNC(=N)N)C(=O)N[C@@H](CC(C)C)C(=O)N[C@@H](CO)C(=O)N[C@@H](C)C(=O)N[C@@H](CCC(=O)O)C(=O)N[C@@H](CC(C)C)C(=O)N[C@@H](Cc1cnc[nH]1)C(=O)N[C@@H](CCC(=O)O)C(=O)N[C@@H](CC(C)C)C(=O)N[C@@H](C)C(=O)N[C@H](C(=O)N[C@@H](CC(C)C)C(=O)N1CCC[C@H]1C(=O)N[C@@H](CCCNC(=N)N)C(=O)N[C@H](C(=O)N[C@@H](CCC(=O)O)C(=O)N[C@H](C(=O)NCC(=O)N1CCC[C@H]1C(=O)N[C@@H](CCC(=O)O)C(=O)N[C@@H](CO)C(=O)N1CCC[C@H]1C(N)=O)[C@@H](C)O)[C@@H](C)O)[C@@H](C)O)[C@@H](C)O ({C18 diacid}-EASEISTAALGRLSAELHELATLPRTETGPESP-NH2) | 0.429 nM | 0.007 nM | ≥ 200 µM | ≥ 200 µM | ≥ 200 µM | ≥ 200 µM | ≥ 200 µM | ≥ 200 µM | 
3 | CC[C@H](C)[C@H](NC(=O)[C@H](C)NC(=O)[C@@H](NC(=O)[C@H](CO)NC(=O)[C@@H](NC(=O)[C@H](CCC(=O)O)NC(=O)[C@H](CO)NC(=O)[C@H](C)NC(=O)[C@H](CCC(=O)O)NC(=O)CCCCCCCCCCCCCCCCC(=O)O)[C@@H](C)CC)[C@@H](C)O)C(=O)N[C@H](C(=O)NCC(=O)N[C@@H](CCCNC(=N)N)C(=O)N[C@@H](CC(C)C)C(=O)N[C@@H](CO)C(=O)N[C@@H](C)C(=O)N[C@@H](CCC(=O)O)C(=O)N[C@@H](CC(C)C)C(=O)N[C@@H](Cc1cnc[nH]1)C(=O)N[C@@H](CCC(=O)O)C(=O)N[C@H](C(=O)N[C@@H](C)C(=O)N[C@H](C(=O)N[C@@H](CC(C)C)C(=O)N1CCC[C@H]1C(=O)N[C@@H](CCCNC(=N)N)C(=O)N[C@H](C(=O)N[C@@H](CCC(=O)O)C(=O)N[C@H](C(=O)NCC(=O)N1CCC[C@H]1C(=O)N[C@@H](CCC(=O)O)C(=O)N[C@@H](CO)C(=O)N1CCC[C@H]1C(N)=O)[C@@H](C)O)[C@@H](C)O)[C@@H](C)O)[C@@H](C)CC)[C@@H](C)CC ({C18 diacid}-EASEISTAIIGRLSAELHEIATLPRTETGPESP-NH2) | 0.998 nM | 0.01 nM | ≥ 200 µM | ≥ 200 µM | ≥ 200 µM | ≥ 200 µM | ≥ 200 µM | ≥ 200 µM | 0.006 nM
4 | CC(C)C[C@H](NC(=O)[C@H](C)NC(=O)[C@H](C)NC(=O)[C@@H](NC(=O)[C@H](CO)NC(=O)[C@H](CC(C)C)NC(=O)[C@H](CCC(=O)O)NC(=O)[C@H](CO)NC(=O)[C@H](C)NC(=O)[C@H](CCC(=O)O)NC(=O)CCCCCCCCCCCCCCCCC(=O)O)[C@@H](C)O)C(=O)NCC(=O)N[C@@H](CCCNC(=N)N)C(=O)N[C@@H](CC(C)C)C(=O)N[C@@H](CO)C(=O)N[C@@H](C)C(=O)N[C@@H](CCC(=O)O)C(=O)N[C@@H](CC(C)C)C(=O)N[C@@H](Cc1cnc[nH]1)C(=O)N[C@@H](CCC(=O)O)C(=O)N[C@@H](CC(C)C)C(=O)N[C@@H](C)C(=O)N[C@H](C(=O)N[C@@H](CC(C)C)C(=O)N1CCC[C@H]1C(=O)N[C@@H](CCCNC(=N)N)C(=O)N[C@H](C(=O)N[C@@H](CCC(=O)O)C(=O)N[C@H](C(=O)NCC(=O)N1CCC[C@H]1C(=O)N[C@@H](CCC(=O)O)C(=O)N[C@@H](CO)C(=O)N1CCC[C@H]1C(=O)O)[C@@H](C)O)[C@@H](C)O)[C@@H](C)O ({C18 diacid}-EASELSTAALGRLSAELHELATLPRTETGPESP-OH) | 298 nM | 0.481 nM |  |  |  |  |  |  | 0.045 nM
5 | CC(C)C[C@H](NC(=O)[C@H](CCC(=O)O)NC(=O)[C@H](Cc1cnc[nH]1)NC(=O)[C@H](CC(C)C)NC(=O)[C@H](CCC(=O)O)NC(=O)[C@H](C)NC(=O)[C@H](CO)NC(=O)[C@H](CC(C)C)NC(=O)[C@H](CCCNC(=N)N)NC(=O)CNC(=O)[C@H](CC(C)C)NC(=O)[C@@H](NC(=O)[C@H](C)NC(=O)[C@@H](NC(=O)[C@H](CO)NC(=O)[C@@H](NC(=O)[C@H](CCC(=O)O)NC(=O)[C@H](CO)NC(=O)[C@H](C)NC(=O)[C@H](CCC(=O)O)NC(=O)CCCCCCCCCCCCCCCCC(=O)O)C(C)C)[C@@H](C)O)C(C)C)C(=O)N[C@@H](C)C(=O)N[C@H](C(=O)N[C@@H](CC(C)C)C(=O)N1CCC[C@H]1C(=O)N[C@@H](CCCNC(=N)N)C(=O)N[C@H](C(=O)N[C@@H](CCC(=O)O)C(=O)N[C@H](C(=O)NCC(=O)N1CCC[C@H]1C(=O)N[C@@H](CCC(=O)O)C(=O)N[C@@H](CO)C(=O)N1CCC[C@H]1C(N)=O)[C@@H](C)O)[C@@H](C)O)[C@@H](C)O ({C18 diacid}-EASEVSTAVLGRLSAELHELATLPRTETGPESP-NH2) | 0.824 nM | 0.02 nM | ≥ 200 µM | ≥ 200 µM | ≥ 200 µM | ≥ 200 µM | ≥ 200 µM | ≥ 200 µM | 0.014 nM
6 | CC(C)C[C@H](NC(=O)[C@H](C)NC(=O)[C@H](C)NC(=O)[C@@H](NC(=O)[C@H](CO)NC(=O)[C@H](CC(C)C)NC(=O)[C@H](CCC(=O)O)NC(=O)[C@H](CO)NC(=O)[C@H](C)NC(=O)CC[C@H](NC(=O)CCCCCCCCCCCCCCCCCCC(=O)O)C(=O)O)[C@@H](C)O)C(=O)NCC(=O)N[C@@H](CCCNC(=N)N)C(=O)N[C@@H](CC(C)C)C(=O)N[C@@H](CO)C(=O)N[C@@H](C)C(=O)N[C@@H](CCC(=O)O)C(=O)N[C@@H](CC(C)C)C(=O)N[C@@H](Cc1cnc[nH]1)C(=O)N[C@@H](CCC(=O)O)C(=O)N[C@@H](CC(C)C)C(=O)N[C@@H](C)C(=O)N[C@H](C(=O)N[C@@H](Cc1ccc(O)cc1)C(=O)N1CCC[C@H]1C(=O)N[C@@H](CCCNC(=N)N)C(=O)N[C@H](C(=O)N[C@@H](CCC(=O)O)C(=O)N[C@H](C(=O)NCC(=O)N[C@@H](CO)C(=O)NCC(=O)N[C@@H](CO)C(=O)N[C@@H](Cc1ccc(O)cc1)C(=O)O)[C@@H](C)O)[C@@H](C)O)[C@@H](C)O ({C20 diacid-γGlu}-ASELSTAALGRLSAELHELATYPRTETGSGSY-OH) | 92 nM |  | ≥ 200 µM | ≥ 200 µM | ≥ 200 µM | ≥ 200 µM | ≥ 200 µM | ≥ 200 µM | 
